Assay results: paper PMC3928314, “Identification and Characterization of Sebaceous Gland Atrophy-Sparing DGAT1 Inhibitors” (PLoS ONE, 2014)
Values joined by “and” are separate entries in the source; they are usually repeats but may differ in a detail not shown here. Identical values can stand only once. “Also recorded” adds a separate entry of the source. Like-named read-outs stand apart in the source and are kept apart here.

What was measured:
[1] = Measured logD by high-throughput HPLC; assay type: physicochemical; conditions: reversed-phase HPLC, Poroshell 120 EC-C18 column; HT HPLC, pH 7.0; read-out: mlogD (measured logD)
Protocol: LogD was measured by high-throughput (HT) HPLC at pH 7.0. The chromatographic system consisted of an Agilent 1200 HPLC system composed of a G1379B degasser, G1312B binary pump, G1367C well-plate autosampler, G1316B thermostatted column compartment, G1315C diode-array UV-vis detector, and ChemStation software, all from Agilent Technologies, USA. The separations were carried out on a Poroshell 120 EC-C18, 30 mm×3.0 mm I.D., 2.7 µm, (Agilent Technologies, USA). The mobile phase consisted of phosphate buffered saline at pH 7 (mobile phase A) and acetonitrile (mobile phase B). The column oven temperature was set to 30°C. The HPLC analysis began with an isocratic step of 0.2 minutes at 5% B at 1.5 ml/min, followed by a gradient from 5% to 98% B in 1.0 minute at 1.5 ml/min. A second isocratic step of 0.2 minutes at 98% B with a changing flow rate from 1.5 to 2.0 ml/min was then followed by a gradient from 98 to 5% B in 0.1 minutes with the flow rate changing from 2.0 to 1.5 ml/min. The equilibration time between injections is 0.2 minutes at 5% B. The injection volume is 5 µL and the spectrophotometric detection was set to 215, 238 and 254 nm.
A 10 mM DMSO stock solution of compound was delivered for analysis. A 100 µM standard solution was generated by diluting 10 µL of the 10 mM stock solution with 990 µL of diluent (10% DMSO/10% MeCN/80% MeOH, v/v/v). The chromatographic system was calibrated with a set of standards with published shake-flask logD values. Linear regression was used to determine the calibration line relating the retention time to logD for the calibration standards. This line was then used to determine the HT HPLC logD7.0 value of compound from the measured retention time by the HPLC/DAD analysis of the 100 µM standard solution.

rats = test: Longer exposure in rats, skin adverse effects; assay type: in vivo, rat; conditions: up to 300 mg/kg for 4 weeks, data not shown
[2] = system: male diet induced obese C57BL/6 mice; test: Skin histology, sebaceous gland atrophy in DIO mice; assay type: in vivo, mouse; conditions: for Sebaceous gland atrophy in skin, in words (skin-positive / skin-negative): 14 days of treatment; for Sebaceous gland size (area), Geometric Mean: dorsal skin biopsies, Cpd1 3 mg/kg, Cpd2 and Cpd3 30 mg/kg, n 10; for Sebaceous gland size (area), Geometric Mean / Scoring (histological adverse effect score, sebaceous gland atrophy): 14 days; for Scoring (histological adverse effect score, sebaceous gland atrophy): oral 30 mg/kg or dose indicated (Cpd1 3 mg/kg), dorsal skin
Protocol: (§1) Experiments were performed in male diet induced obese C57BL/6 mice (Taconic Farms, Germantown, NY) that were fed high-fat diet (D12492: 60% kcal from fat; Research Diets) in a 12 hr light/12 hr dark cycle. Animal protocols used in these studies were approved by the Merck Research Laboratories Institutional Animal Care and Use Committee (Rahway, NJ). Mice were acclimated to nonspecific stress for 7 days before the onset of the chronic dosing studies where they were dosed orally with vehicle (0.5% methylcellulose) or compounds at 30 mg/kg, or at doses indicated, for 14 days.
Skin samples from DIO mice treated with DGAT1 inhibitors for 14 days were collected from the dorsal and/or ventral surface and immediately fixed in 10% buffered formalin for 24 hr at room temperature and embedded in paraffin. Paraffin specimens were sectioned at 5 µm and stained with hematoxylin and eosin, and were evaluated blindly with light microscopy. […] One slide/location with at least 50 sebaceous glands was used for scoring purposes. Digital images were captured using a 20× objective and the ScanScope XT slide scanner system (Aperio Technologies, Vista, CA) and managed using Spectrum (Aperio). The size of the sebaceous glands were measured using ImageScope of Aperio system by the method previously described.

[3] = Skin compound concentration after 14 days oral dosing; assay type: in vivo, mouse; conditions: DIO mice; for Skin (skin concentration): oral 30 mg/kg or dose indicated (Cpd1 3 mg/kg), 14 days, trough, BLQ = below detection; for Kp: male, C57BL/6, mouse, skin/plasma, 14 days oral dosing, read-out: Skin/Plasma Ratio (skin to plasma concentration ratio)
Protocol: as §1
The skin tissue samples from mice were weighted and placed in 48-well plates (or tubes). […] An aliquot of 100 µL homogenized blank skin tissue samples were transferred to 96-well plates designated for standard curve and QCs. […] An aliquot of 100 µL dosed skin tissue homogenates were transferred to the 96-well plate and a 25 µL aliquot of acetonitrile:water 1∶1 was added into each well containing dosed tissue samples to make the volumes of all samples, stds, and QCs equal. Protein precipitation was used for sample extraction by the addition of 500 µL of acetonitrile crash solution, containing IS. Internal standard used was Alprazolam (Sigma Aldrich) at 100 µM in the crash solution. Samples were vortexed for 30 seconds and then centrifuged at 4000 rpm for 5 min. The supernatant was transferred to a separate plate.
A Thermo Scientific-Cohesive LX-2 system consisting of a CTC Analytics autosampler, Flux Instruments AG pumps, and a valve module, controlled by Aria software was used. A Sciex API-4000 mass spectrometer (Toronto, Canada) was the detector using Analyst 1.4.2 software. The aqueous mobile phase (A) was water with 0.1% formic acid and the organic mobile phase (B) was acetonitrile with 0.1% formic acid. A gradient chromatographic profile was used. […] Then over 90 seconds, the chromatic conditions were ramped to 5% A and 95% B. This was held for 25 seconds when the conditions were changed back to original 95% A and 5% B and held for 50 seconds. […] A turbo ionspray interface was used in positive ion mode for detection of analytes. Multiple reaction monitoring (MRM) was used to measure the analyte response. The peak area ratio of analyte to internal standard for nominal concentrations was used to make a linear regression line with a 1/x2 weighting factor. The line's equation was used to determine the concentration in the unknown samples.

[4] = Plasma compound concentration after 14 days oral dosing; assay type: in vivo, mouse; conditions: DIO mice, oral 30 mg/kg or dose indicated (Cpd1 3 mg/kg), trough
Protocol: as §1
Concentrations of compounds in plasma were determined by LC-MS/MS following protein precipitation. To 100 µL of plasma sample, 20 µL of an acetonitrile solution of the internal standard (2,500 ng/ml), was added. This step was followed by protein precipitation with 300 µL of acetonitrile. Samples expected to contain analyte concentrations exceeding the upper limits of the calibration curves were diluted with control plasma. Sample mixtures were vortex-mixed for 15 minutes. After spinning in a centrifuge for 15 minutes at 1,000× g (at 10°C), the supernatants were transferred by a Tomtec Quadra 96 Model 320 (Hamden, CT) to Empore 96 filter plates (Fisher Scientific, Springfield, NJ), and the resulting filtrates collected. These filtrates were dried at 25°C under a stream of nitrogen gas, on a Zymark TurboVap 96 (Hopkinton, MA). The residues were reconstituted with 100 µL of a 8∶2, v/v, mixture of mobile phases A (20 mM aqueous ammonium acetate containing 0.01% formic acid), and B (80∶20, v/v, acetonitrile:methanol), vortex-mixed, spun in a centrifuge at 1,000× g (at 10°C), then analyzed by LC-MS/MS.
The LC-MS/MS system comprised of a Leap Technologies HTS-PAL autosampler (Carrboro, North Carolina), two Perkin Elmer Series 200 Micro Pumps (Norwalk, CT), an in-line pre-column filter, a Type W 6-port Valco switching valve (Vici, Houston, TX), and a Sciex API 365 mass spectrometer (Toronto, Canada). Chromatographic separation of the analytes was achieved by RP-HPLC.
Data were acquired and processed by Sciex Analyst version 1.1 software. Peak area ratios of analyte to internal standard were plotted as a function of the nominal concentrations of the analyte. A line of best fit was generated from the curve points by linear regression with a weighting factor of 1/x2. The equation of this line was then used to calculate the plasma […] in samples.

[5] = Unbound fraction (Fu) in plasma by equilibrium dialysis; assay type: in vitro ADME; conditions: pH 7.4, mouse plasma, equilibrium dialysis 4 hr 37°C
Protocol: Plasma protein binding was determined by equilibrium dialysis with an incubation period of 4 hr at 37°C. The dialysis membrane (10-12K MWCO, HTDialysis, LLC) was hydrated and the dialysis apparatus (HTDialysis, LLC) assembled according to the manufacturer's directions. A 150 µL aliquot of mouse plasma containing compound (5 µM) was added to one side of the dialysis membrane. A 150 µL aliquot of phosphate buffered saline (pH 7.4) was added to the opposite side. The plate was then sealed and placed in a shaking incubator set to maintain a temperature of 37°C and constant shaking rate of 60 rpm for 4 hr. At the end of the incubation period, 50 µL aliquots of plasma and buffer were removed and analyzed by LC-MS/MS. Percent unbound was determined as the amount of compound in buffer (post incubation) divided by amount of compound in plasma (post incubation) x100.

mDGAT1 = biological target: T1, mDGAT1 (Mus musculus, UniProt Q9Z2A7); test: DGAT1 enzyme assay; assay type: biochemical; conditions: in vitro potency
T1 construct: made in house; host or cells: Pichia (membrane preparations)
T1 sequence (Q9Z2A7 1-498): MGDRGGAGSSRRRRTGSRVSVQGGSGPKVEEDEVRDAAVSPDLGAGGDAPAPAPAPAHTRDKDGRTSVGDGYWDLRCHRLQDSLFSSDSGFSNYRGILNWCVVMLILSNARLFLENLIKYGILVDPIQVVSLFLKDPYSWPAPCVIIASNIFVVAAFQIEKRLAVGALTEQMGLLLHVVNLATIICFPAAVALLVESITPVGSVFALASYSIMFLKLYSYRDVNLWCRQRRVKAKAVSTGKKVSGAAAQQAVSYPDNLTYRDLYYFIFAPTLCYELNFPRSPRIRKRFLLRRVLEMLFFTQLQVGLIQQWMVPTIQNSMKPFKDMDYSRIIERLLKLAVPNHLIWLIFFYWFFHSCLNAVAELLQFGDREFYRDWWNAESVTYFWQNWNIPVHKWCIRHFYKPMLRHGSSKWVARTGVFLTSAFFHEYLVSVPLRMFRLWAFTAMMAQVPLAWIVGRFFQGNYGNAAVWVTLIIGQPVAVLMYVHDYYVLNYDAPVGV

| chromatographic logD [1] | Sebaceous gland size (area), Geometric Mean [2] | Skin (skin concentration) [3] | Kp [3] | Plasma (plasma concentration) [4] | Kp ([3]; po) | fraction unbound at 4 h, 5 µM [5] | IC50 (mDGAT1) [µM] | IC50 (mDGAT1; same values in µM) [µM] | SMILES | Adverse effects in skin (rats) | Sebaceous gland atrophy in skin, in words (skin-positive / skin-negative) [2] | Scoring (histological adverse effect score, sebaceous gland atrophy) [2] |
| --- | --- | --- | --- | --- | --- | --- | --- | --- | --- | --- | --- | --- |
| 0.35 | 1805 | 0.0621 µM | 0.32 | 0.194 µM |  |  |  |  | Nc1ncnc2c1C(=O)N(c1ccc([C@H]3CC[C@H](CC(=O)O)CC3)cc1)CCO2 [Cpd1] | no adverse effects in skin | lack of skin AEs; also recorded: appeared normal; also recorded: Skin-Negative | not remarkable |
| 4.04 | 880 | 2.16 µM and 1.94 µM and 2.25 µM |  | 0.124 µM and 0.106 µM and 0.163 µM | 17.5 | 0.01 |  |  | CC(C)(C)OC(=O)NC1(C(=O)N[C@@H]2CC(=O)c3ccccc3N(Cc3cc(C(F)(F)F)cc(C(F)(F)F)c3)C2=O)CC1 [Cpd2] |  | induce either “minimal to mild” or “moderate to marked” skin sebaceous gland atrophy; also recorded: Skin-Positive | moderate to marked |
| 1.73 | 1562 | 0.135 µM | 0.098 | 1.38 µM |  | 0.063 | 0.011 | 0.011 | O=C(Nc1ccc([C@H]2CC[C@H](C(=O)O)CC2)cc1F)c1nnc(Nc2ccc(F)c(F)c2)o1 [Cpd3] |  | induce either “minimal to mild” or “moderate to marked” skin sebaceous gland atrophy | minimal to mild |
| 2.15 |  | BLQ |  | 51.4 µM |  | 0.112 |  |  | CC(C)(O)C[C@H]1CC[C@H](c2ccc(N3CCOc4ncnc(N)c4C3=O)cc2)CC1 [Cpd22] |  | induce either “minimal to mild” or “moderate to marked” skin sebaceous gland atrophy | moderate to marked |
